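Growth conditions: 96-well plates. Treatment: test compound, 48 hours, 5 concentrations. Analysis: linear interpolation between bracketing concentrations; unreached endpoints set to highest concentration. GI50: concentration for 50% inhibition of growth.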 Active and inactive are the calls of the source. Rule as the data show it: active = GI50 up to about 1.1 µM and inactive = higher. Where a SMILES comes first, the peptide text is derived from it. [ ]: non-standard residue; d: D form. The star is where a group is joined. ξ: configuration not given here. ξD = NC(CC(=O)O)C(=O)O; Ac3c = NC1(C(=O)O)CC1; Boc = CC(C)(C)OC(=O)*; OBn = c1ccc(CO*)cc1
What was measured:
Assay in all cases: NCI tumour cell line growth inhibition, 48 h
A549 = test system: A549
ACHN = test system: ACHN
HCT-15 = test system: HCT-15
HL-60 = test system: HL-60
HOP-62 = test system: HOP-62
LOX IMVI = test system: LOX IMVI
M14 = test system: M14
Malme-3M = test system: Malme-3M
NCI-H226 = test system: NCI-H226
OVCAR-4 = test system: OVCAR-4
RXF 393 = test system: RXF 393
SK-MEL-28 = test system: SK-MEL-28
SK-MEL-2 = test system: SK-MEL-2
SNB-19 = test system: SNB-19
TK-10 = test system: TK-10
U-251 = test system: U-251
UO-31 = test system: UO-31
A498 = test system: A498
COLO 205 = test system: COLO 205

SMILES	GI50 (A549)	GI50 (ACHN)	GI50 (HCT-15) [µM]	GI50 (HL-60)	GI50 (HOP-62)	GI50 (LOX IMVI)	GI50 (M14)	GI50 (Malme-3M)	GI50 (NCI-H226)	GI50 (OVCAR-4)	GI50 (RXF 393)	GI50 (SK-MEL-28)	GI50 (SK-MEL-2)	GI50 (SNB-19)	GI50 (TK-10)	GI50 (U-251)	GI50 (UO-31)	GI50 (A498)	GI50 (COLO 205)
COc1ccc2c(c1)[n+]([O-])c(/C(C)=N/NC(=O)c1ccccc1O)c(C)[n+]2[O-]	> 100 µM (inactive)	> 100 µM (inactive)	> 100	> 100 µM (inactive)	> 100 µM (inactive)	> 100 µM (inactive)	> 100 µM (inactive)	> 100 µM (inactive)	> 100 µM (inactive)	> 100 µM (inactive)	> 100 µM (inactive)	> 100 µM (inactive)	> 100 µM (inactive)	> 100 µM (inactive)	> 100 µM (inactive)	> 100 µM (inactive)	> 100 µM (inactive)		
C=C1C(=O)OC2C/C(C)=C/CC/C(C)=C/CCC3(COC(C)=O)OC3CC12 (stereo unspecified)	16.4 µM (inactive)	14.1 µM (inactive)	2.81	2.21 µM (inactive)	18.7 µM (inactive)	9.46 µM (inactive)	6.15 µM (inactive)	12.9 µM (inactive)		26.7 µM (inactive)	2.51 µM (inactive)	11.1 µM (inactive)	3.33 µM (inactive)	16.5 µM (inactive)	7.14 µM (inactive)	11.2 µM (inactive)	12.7 µM (inactive)	13.8 µM (inactive)	4.55 µM (inactive)
Cc1cc(Cl)ccc1NC(=O)CCCC(=O)C1C/C(=N/O)CC/C1=N\O (stereo unspecified)	> 100 µM (inactive)	> 100 µM (inactive)	> 100	> 100 µM (inactive)	> 100 µM (inactive)		> 100 µM (inactive)	> 100 µM (inactive)	> 100 µM (inactive)	> 100 µM (inactive)		> 100 µM (inactive)	> 100 µM (inactive)	> 100 µM (inactive)	> 100 µM (inactive)	> 100 µM (inactive)	> 100 µM (inactive)	> 100 µM (inactive)	> 100 µM (inactive)
Cc1nn(C(=O)Cc2ccccc2)c2c1C(c1ccc(/C=C/c3ccccc3)cc1)SC(=N)N2 (stereo unspecified)	> 100 µM (inactive)	> 100 µM (inactive)	> 100	> 100 µM (inactive)	> 100 µM (inactive)	> 100 µM (inactive)	> 100 µM (inactive)	> 100 µM (inactive)	> 100 µM (inactive)			> 100 µM (inactive)		> 100 µM (inactive)	> 100 µM (inactive)		> 100 µM (inactive)	> 100 µM (inactive)	> 100 µM (inactive)
CC1=CCCC(C)(O)C2CC(CCC3(C)OC3CC1)C(C)C(=O)O2 (stereo unspecified)	> 100 µM (inactive)	> 100 µM (inactive)	> 100	> 100 µM (inactive)		> 100 µM (inactive)	> 100 µM (inactive)	> 100 µM (inactive)	> 100 µM (inactive)	> 100 µM (inactive)		> 100 µM (inactive)	> 100 µM (inactive)	> 100 µM (inactive)	> 100 µM (inactive)	> 100 µM (inactive)	> 100 µM (inactive)	> 100 µM (inactive)	> 100 µM (inactive)
COc1ccccc1NC(=O)NS(=O)(=O)c1ccccc1	> 100 µM (inactive)	58.3 µM (inactive)		> 100 µM (inactive)	69.2 µM (inactive)	> 100 µM (inactive)	> 100 µM (inactive)	> 100 µM (inactive)	87.1 µM (inactive)	> 100 µM (inactive)	28.9 µM (inactive)	> 100 µM (inactive)	> 100 µM (inactive)	> 100 µM (inactive)	> 100 µM (inactive)	> 100 µM (inactive)	> 100 µM (inactive)		> 100 µM (inactive)
CC(C)N(C(=O)C12C3C4C1C1C2C3C41C(=O)C(C)(C)C)C(C)C (stereo unspecified)	> 100 µM (inactive)	> 100 µM (inactive)		18.1 µM (inactive)	> 100 µM (inactive)	> 100 µM (inactive)	> 100 µM (inactive)	> 100 µM (inactive)		> 100 µM (inactive)		> 100 µM (inactive)	> 100 µM (inactive)	> 100 µM (inactive)	> 100 µM (inactive)	> 100 µM (inactive)	46.1 µM (inactive)	> 100 µM (inactive)	> 100 µM (inactive)
O=[N+]([O-])c1ccc(N=P(c2ccccc2)(c2ccccc2)c2ccccc2)n2nnnc12	40.6 µM (inactive)	43.5 µM (inactive)	> 100	36.1 µM (inactive)	25.6 µM (inactive)	> 100 µM (inactive)	> 100 µM (inactive)	50.8 µM (inactive)		31.8 µM (inactive)	44 µM (inactive)	> 100 µM (inactive)	33.7 µM (inactive)	33.4 µM (inactive)	> 100 µM (inactive)	54.8 µM (inactive)	78.7 µM (inactive)	> 100 µM (inactive)	82 µM (inactive)
Cc1cc(S(=O)(=O)O)ccc1/N=N/c1c(O)ccc2ccccc12	> 100 µM (inactive)	> 100 µM (inactive)	> 100	> 100 µM (inactive)	> 100 µM (inactive)		> 100 µM (inactive)	> 100 µM (inactive)	> 100 µM (inactive)	> 100 µM (inactive)	> 100 µM (inactive)	> 100 µM (inactive)	> 100 µM (inactive)	> 100 µM (inactive)	> 100 µM (inactive)	> 100 µM (inactive)	> 100 µM (inactive)		> 100 µM (inactive)
Clc1ccc(OCc2nnc(CCCCCCCCc3nnc(COc4ccc(Cl)cc4Cl)n3Nc3ccccc3)n2Nc2ccccc2)c(Cl)c1	8.77 µM (inactive)	2.44 µM (inactive)	10.9		3.02 µM (inactive)	19 µM (inactive)	11.3 µM (inactive)	19.5 µM (inactive)	9.51 µM (inactive)	8.51 µM (inactive)	16.3 µM (inactive)	5.46 µM (inactive)	8.04 µM (inactive)	17.7 µM (inactive)	16.8 µM (inactive)	13.1 µM (inactive)	11.8 µM (inactive)	21.4 µM (inactive)	1.5 µM (inactive)
Cc1nnc2sc(NN)nn12	> 100 µM (inactive)	> 100 µM (inactive)	> 100		> 100 µM (inactive)	> 100 µM (inactive)	> 100 µM (inactive)	> 100 µM (inactive)	> 100 µM (inactive)	> 100 µM (inactive)	> 100 µM (inactive)	> 100 µM (inactive)	> 100 µM (inactive)	> 100 µM (inactive)	> 100 µM (inactive)	> 100 µM (inactive)	> 100 µM (inactive)	> 100 µM (inactive)	> 100 µM (inactive)
COC(=O)C1(NC(=O)C(CC(=O)OCc2ccccc2)NC(=O)OC(C)(C)C)CC1 (stereo unspecified) (Boc-[ξD](OBn)-[Ac3c]-OMe)	> 100 µM (inactive)	> 100 µM (inactive)	> 100		> 100 µM (inactive)	> 100 µM (inactive)	> 100 µM (inactive)	> 100 µM (inactive)	> 100 µM (inactive)	> 100 µM (inactive)	> 100 µM (inactive)	> 100 µM (inactive)	> 100 µM (inactive)	> 100 µM (inactive)	> 100 µM (inactive)	> 100 µM (inactive)	> 100 µM (inactive)	> 100 µM (inactive)	> 100 µM (inactive)
